For data set [1], the system named is NCI/ADR-RES. The experiment in a line: Reversal of P-gp-mediated multidrug resistance in human MCF7/ADR cells assessed as modulation factor, ratio of adriamycin IC50 without drug to adriamycin IC50 with drug at 1 uM after 72 hrs by MTT assay. The data set is classed as cell-based. On the technique in general: Formazan colour is commonly taken as a measure of viable cells.

The test system of data set [2] is NCI/ADR-RES. In words: Reversal of P-gp-mediated multidrug resistance in human MCF7/ADR cells assessed as assessed as increase in intracellular adriamycin accumulation at 5 uM incubated 2 hrs before adriamycin challenge by spectrophotometry. In kind it is cell-based.
In data set [3] the test system is NCI/ADR-RES. The experiment in a line: Reversal of P-gp-mediated multidrug resistance in human MCF7/ADR cells assessed as modulation factor, ratio of adriamycin IC50 without drug to adriamycin IC50 with drug at 25 uM after 72 hrs by MTT assay. In kind it is cell-based.
Data set [4] has as its system NCI/ADR-RES. The experiment in a line: Reversal of P-gp-mediated multidrug resistance in human MCF7/ADR cells assessed as modulation factor, ratio of adriamycin IC50 without drug to adriamycin IC50 with drug at 10 uM after 72 hrs by MTT assay. In kind it is cell-based.
Data set [5] concerns MCF7. In words: Reversal of P-gp-mediated multidrug resistance in human MCF7 cells assessed as assessed as increase in intracellular adriamycin accumulation at 5 uM incubated 2 hrs before adriamycin challenge by spectrophotometry. In kind it is cell-based.
A short description of data set [6]: Cytotoxicity against human MCF7/ADR cells after 72 hrs by MTT assay. In kind it is functional, cell-based. The conditions noted are these: NCI/ADR-RES.
In data set [7] the test system is NCI/ADR-RES. In words: Inhibition of MDR1 gene expression in human MCF7/ADR cells after 48 hrs by RT-PCR analysis. The data set is classed as functional, cell-based.
Data set [8] deals with NCI/ADR-RES. In words: Reversal of P-gp-mediated multidrug resistance in human MCF7/ADR cells assessed as enhancement in cytotoxicity of adriamycin. In kind it is cell-based.
In data set [9] the test system is MCF7. The experiment in a line: Ratio of IC50 for human MCF7/ADR cells to IC50 for human MCF7 cells. In kind it is functional.
The target in data set [10] is T1, P-gp (ABCB1) (Homo sapiens, UniProt P08183). The experiment in a line: Inhibition of P-gp in human Caco-2 cells assessed as increase in influx permeability from apical to basolateral side at 50 uM after 120 mins. The data set is classed as cell-based. On the technique in general: Caco-2 cells form a polarised layer with tight junctions and transporters.
T1 sequence (P08183 whole entry): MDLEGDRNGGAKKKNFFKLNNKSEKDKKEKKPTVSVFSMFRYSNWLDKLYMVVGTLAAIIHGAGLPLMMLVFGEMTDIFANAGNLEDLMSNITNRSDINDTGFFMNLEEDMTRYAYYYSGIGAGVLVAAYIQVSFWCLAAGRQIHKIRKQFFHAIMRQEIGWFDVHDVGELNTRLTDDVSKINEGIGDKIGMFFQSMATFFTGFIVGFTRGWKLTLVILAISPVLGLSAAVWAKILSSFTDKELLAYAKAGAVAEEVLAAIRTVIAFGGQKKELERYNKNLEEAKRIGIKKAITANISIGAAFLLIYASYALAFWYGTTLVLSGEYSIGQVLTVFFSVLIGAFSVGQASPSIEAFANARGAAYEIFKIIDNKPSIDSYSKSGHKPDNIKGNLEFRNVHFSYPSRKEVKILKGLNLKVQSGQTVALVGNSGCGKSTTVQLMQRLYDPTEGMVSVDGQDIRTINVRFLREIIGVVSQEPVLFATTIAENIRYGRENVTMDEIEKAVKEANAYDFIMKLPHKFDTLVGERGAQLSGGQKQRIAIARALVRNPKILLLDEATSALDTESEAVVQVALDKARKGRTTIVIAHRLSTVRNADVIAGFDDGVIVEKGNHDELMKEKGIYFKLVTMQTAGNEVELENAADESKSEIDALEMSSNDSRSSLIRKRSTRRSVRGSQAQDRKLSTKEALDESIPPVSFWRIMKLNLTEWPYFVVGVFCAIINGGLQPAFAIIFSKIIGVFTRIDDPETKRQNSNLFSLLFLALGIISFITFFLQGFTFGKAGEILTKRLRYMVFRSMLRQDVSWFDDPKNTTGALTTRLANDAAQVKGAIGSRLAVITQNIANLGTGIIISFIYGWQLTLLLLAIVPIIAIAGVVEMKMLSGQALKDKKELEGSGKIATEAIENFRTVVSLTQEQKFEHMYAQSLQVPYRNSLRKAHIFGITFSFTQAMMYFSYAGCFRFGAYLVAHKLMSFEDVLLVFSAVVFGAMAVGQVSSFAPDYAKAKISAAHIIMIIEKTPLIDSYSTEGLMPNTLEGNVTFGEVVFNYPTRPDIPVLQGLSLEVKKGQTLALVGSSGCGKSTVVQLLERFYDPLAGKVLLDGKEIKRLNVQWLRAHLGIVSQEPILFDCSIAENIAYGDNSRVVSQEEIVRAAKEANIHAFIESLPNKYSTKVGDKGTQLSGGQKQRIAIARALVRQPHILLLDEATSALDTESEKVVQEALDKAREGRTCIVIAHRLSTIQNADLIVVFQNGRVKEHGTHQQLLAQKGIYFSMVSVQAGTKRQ
Data set [11] addresses T1, P-gp (ABCB1). In words: Inhibition of P-gp in human Caco-2 cells assessed as decrease in efflux permeability from basolateral to apical side at 50 uM after 120 mins. The data set is classed as cell-based.

Activity calls are given as the source filed them. No cut-off for these calls is given here.

The term IC50 denotes the concentration at which inhibition is half-maximal. Low readings indicate greater potency in that assay, high ones weaker potency in that assay. As to `COc1ccc(-c2oc3c(CC=C(C)C)c(O)cc(O)c3c(=O)c2O[C@@H]2O[C@@H](C)[C@H](O)[C@@H](O)[C@H]2O)cc1`, the Ratio IC50 in data set [1] was 1.28; in data set [3], 1.61; in data set [4], 1.39. In data set [2], the result was Active. Besides, in [5], the outcome was inactive. In [6], the IC50 is greater than 100 µM.
In the case of `COc1ccc(-c2oc3c4c(cc(O)c3c(=O)c2OS(N)(=O)=O)OC(C)(C)CC4)cc1`, the Ratio IC50 came to 1.42 in data set [1], 3.65 in data set [3] and 1.69 in data set [4]. In addition, the result in data set [7] and in [2] was Active. Also, the outcome in [5] was inactive. In data set [6], this compound displayed an IC50 of 92.1 µM.
For the compound `COc1ccc(-c2oc3c4c(cc(O)c3c(=O)c2OS(C)(=O)=O)OC(C)(C)CC4)cc1`, the Ratio IC50 in data set [1] came to 1.89; in data set [3], 2.71; in [4], 2.34. In addition, the outcome in [7] and in data set [2] was Active. For the same compound, in data set [5], the result was inactive. Further, the IC50 in [6] was determined as 55 µM.
Take `COc1ccc(-c2oc3c(CC=C(C)C)c(O[C@@H]4O[C@H](CO)[C@@H](O)[C@H](O)[C@H]4O)cc(O)c3c(=O)c2O[C@@H]2O[C@@H](C)[C@H](O)[C@@H](O)[C@H]2O)cc1` [ICARIIN]: the Ratio IC50 is 1.41 in data set [1], 2.03 in data set [3] and 1.59 in [4]. The outcome in data set [2] was Active. Besides, the result in data set [5] was inactive. For the same compound, in [8], the Activity entry is “Dose-dependent effect”. The compound also displayed a half-maximal inhibitory concentration (IC50) in data set [6] greater than 100 µM.
With `COc1ccc(-c2oc3c(CC=C(C)C)c(O[C@@H]4O[C@H](CO)[C@@H](O)[C@H](O)[C@H]4O)cc(O)c3c(=O)c2O)cc1`, the Ratio IC50 in [1] came out at 1.41; in data set [3] it was 1.62; in [4], 1.49. Further, in data set [2], the result was Active. Moreover, the result in data set [5] was inactive. This compound had an IC50 in data set [6] of 60.8 µM.
`COc1ccc(-c2oc3c(CCC(C)(C)OC)c(O)cc(O)c3c(=O)c2O)cc1`: the Ratio IC50 in data set [1] stood at 1.26; in data set [4], 2.41. The result in data set [2] was Active. The outcome in data set [5] was inactive. The Activity result in [8] is “Dose-dependent effect”. In data set [6], this compound displayed an IC50 of 20.9 µM.
Consider `COc1cccc2c1C(=O)c1c(O)c3c(c(O)c1C2=O)C[C@@](O)(C(=O)CO)C[C@@H]3O[C@H]1C[C@H](N)[C@H](O)[C@H](C)O1` [DOXORUBICIN], for which the “Ratio IC50” value in [9] came to 47.7. Moreover, the IC50 in data set [6] was found to be 25.3 µM.
A word on the inhibition: it is the share of the control response that was lost under treatment. In the case of `COc1ccc(-c2oc3c(CC=C(C)C)c(O)cc(O)c3c(=O)c2O)cc1` [ICARITIN], the results for the Ratio IC50 in [1], in data set [3] and in data set [4] were 2.48, 12.9 and 4.96, respectively. In addition, the outcome in data set [7] and in data set [2] was Active. Also, the result in data set [5] was inactive. Besides, the inhibition at 2 h, 50 µM in [10] and in [11] was 41.9% in each case. Further, in data set [8], the fold change (FC) was 10. This compound also returned an IC50 in data set [6] of 52.1 µM.
For the compound `COc1ccc(-c2oc3c4c(cc(O)c3c(=O)c2O)OC(C)(C)CC4)cc1S(=O)(=O)O`, the values for the Ratio IC50 in [1], in [3] and in data set [4] were 1.33, 2.56 and 2.15, respectively. The result in data set [7] and in data set [2] was Active. Further, the outcome in data set [5] was inactive. In addition, in [6], the IC50 was greater than 100 µM.
`COc1ccc(-c2oc3c4c(cc(O)c3c(=O)c2O)OC(C)(C)CC4)cc1`: the results for the Ratio IC50 in data set [1], in [3] and in [4] were 2.33, 10.1 and 4.35, respectively. In addition, the result in [7] and in [2] was Active. In [5], the outcome was inactive. For the same compound, the inhibition at 2 h, 50 µM in [10] and in data set [11] was 39.6% in each case. Besides, the fold change (FC) in data set [8] is 10. In addition, the IC50 in data set [6] is greater than 100 µM.
Consider `COc1ccc(-c2oc3c(CC=C(C)C)c(OS(C)(=O)=O)cc(O)c3c(=O)c2OS(C)(=O)=O)cc1`, for which the Ratio IC50 was 1.11 in data set [1], 1.46 in [3] and 1.36 in [4]. The outcome in data set [2] was Active. Besides, the outcome in data set [5] was inactive. This compound also came in with a half-maximal inhibitory concentration (IC50) in [6] of 80.8 µM.
